Laboratory results reported in patent publication US8715673B2 (priority 2011, dated 2014).
Values joined by “and” are separate entries in the source; they are usually repeats but may differ in a detail not shown here. Identical values can stand only once. Like-named read-outs stand apart in the source and are kept apart here.

Columns and labels:
Settings in all cases: in vivo
[1] = tested on: S. aureus strain USA300 (LAC)
[2] = tested on: S. aureus strain USA300 (LAC); remark: listed apart in the source
[3] = tested on: S. aureus strain USA300 (LAC); remark: listed apart in the source
[4] = tested on: S. aureus strain USA300 (LAC); remark: listed apart in the source
[5] = tested on: S. aureus strain USA300 (LAC); remark: listed apart in the source
[6] = tested on: S. aureus strain USA300 (LAC); remark: listed apart in the source
[7] = tested on: Staphylococcus aureus strain USA300 (LAC); design: species or system S. aureus
[8] = tested on: Staphylococcus aureus strain USA300 (LAC); design: species or system S. aureus; remark: listed apart in the source

CC(=O)NC[C@H]1CN(c2ccc(N3CCOCC3)c(F)c2)C(=O)O1 [linezolid]
Cumulative survival (%) day 0, 2 h [1]: 100% | Cumulative survival (%) day 0, 4 h [1]: 100% | Cumulative survival (%) day 0, 8 h [1]: 100% | Cumulative survival (%) day 0, 12 h [1]: 100% | Cumulative survival (%) day 1 [1]: 100% and 60% | Cumulative survival (%) Day 0 [2]: 100% | Cumulative survival (%) Day 1 [2]: 100% | Cumulative survival (%) Study end [2]: 40% | CFU/g Kidney Tissue (log10), individual mouse [3]: 0.00 and 5.95 and 3.77 and 3.21 | CFU/g Kidney Tissue (log10), mean CFU/g [3]: 3.23 | CFU/g Lung Tissue (log10), individual mouse [3]: 3.13 and 7.64 and 4.36 and 3.55 | CFU/g Lung Tissue (log10), mean CFU/g [3]: 4.67 | Cumulative survival (%) Day 0 [4]: 100% | Cumulative survival (%) Day 1 [4]: 100% | Cumulative survival (%) Day 2 [4]: 60% and 100% | Cumulative survival day 1 [4]: 100% | Cumulative survival day 2 [4]: 60% | Cumulative survival day 3 [4]: 20% | Cumulative survival day 4 [4]: 20% | Cumulative survival day 5 [4]: 20% | Median survival time [4]: 4 days and 2.5 days | survival rate [4]: 90% | Cumulative survival (%) Day 1 [5]: 100% | Cumulative survival (%) Day 7 [5]: 70% | cumulative survival at day 7 [5]: 70% | survival rate at day 14 (study end) [5]: 70% | Cumulative survival (%) Day 1 [6]: 100% | Cumulative survival (%) Day 7 [6]: 70% | cumulative survival at day 7 [6]: 70% | survival rate at study end [6]: 60% | Average area of abscess (mm^2) Day 0 [7]: 0.0 mm^2 | Average area of abscess (mm^2) Day 1 [7]: 0.0 mm^2 | Average area of abscess (mm^2) Day 2 [7]: 6.6 mm^2 | Average area of abscess (mm^2) Day 3 [7]: 4.9 mm^2 | Average area of abscess (mm^2) Day 4 [7]: 3.7 mm^2 | mean area of skin abscess, day 1 [7]: about 0.0 mm^2 | mean area of skin abscess, day 2 [7]: ~6.6 mm^2 | mean area of skin abscess, day 3 [7]: ~4.9 mm^2 | mean area of skin abscess, day 4 [7]: ~3.7 mm^2 | Day 4 CFU/g tissue (log10), Mean CFU/g [8]: 5.2 CFU/g tissue (log10) | Day 4 CFU/g tissue (log10), individual mice [8]: 5.7 CFU/g tissue (log10) and 5.2 CFU/g tissue (log10) and 6.0 CFU/g tissue (log10) and 4.5 CFU/g tissue (log10) and 4.8 CFU/g tissue (log10) and 5.1 CFU/g tissue (log10) and 5.4 CFU/g tissue (log10) and 4.9 CFU/g tissue (log10) | Day 4 CFU/g tissue (log10), median [8]: 5.1 CFU/g tissue (log10) | bacterial burden in the infected area, average [8]: about 5.2 log 10 CFU/g
